The source of these data is publication PMC6910994, “Elucidating molecular interactions of L-nucleotides with HIV-1 reverse transcriptase and mechanism of M184V-caused drug resistance” (Communications Biology, 2019).

The test system of one data set is HIV-1 M184V. The settings on record: cited from earlier work; for Resistance conferred by M184V as compared to WT: single amino acid residue mutation M184V.
The target of data set [1] is T1, M184V HIV-1 RT (Human immunodeficiency virus type 1 group M subtype B, UniProt P03366, M783V/Q857C).
T1 construct: HIV-1 RT p66 and p51 subunits were expressed and purified as described previously; made in house
In words: Pre-steady-state single-turnover kinetics of nucleotide incorporation by M184V HIV-1 RT. The class given is biochemical. The protocol:
(§1) Previous kinetic studies[16],[18],[20],[22]–[26] have aimed at understanding the efficiency of incorporation for (−)-FTC-TP or (−)-3TC-TP, how they compete against dCTP, and the effect of resistance mutations, such as M184V. As in our previous work[20],[25],[26], single-turnover kinetic assays were performed by rapidly mixing a pre-incubating solution of 120 nM HIV-1 RT (WT or M184V) and 30 nM 5ʹ-[^32P]-labeled 18/26-mer dsDNA substrate (Methods) with varying concentrations of dCTP, or an active metabolite of NRTIs for different times, before being quenched by 0.37 M EDTA. Representative kinetic plots displaying M184V-catalyzed incorporation of (−)-FTC-TP onto 18/26-mer dsDNA substrate are shown in Fig. 2. […] We determined the pre-steady-state kinetic parameters of maximal nucleotide incorporation rate constants (kp) and apparent equilibrium dissociation constants (Kd) for dCTP, (+)-FTC-TP, (−)-FTC-TP, (+)-3TC-TP and (−)-3TC-TP with WT or M184V HIV-1 RT (Table 1). […] The resulting selectivity factors ((kp/Kd)dCTP/(kp/Kd)NRTI) were determined to be only 1.9 and 7.0-fold higher for dCTP over (−)-FTC-TP and (−)-3TC-TP, respectively.
(§2) Fig. 2 Determination of kinetic parameters for (−)-FTC-TP incorporation onto 18/26-mer dsDNA catalyzed by the M184V mutant of HIV-1 RT. a A pre-incubated solution of 120 nM M184V and 30 nM 5′-[^32P]-labeled 18/26-mer was mixed with increasing concentrations of (−)-FTC-TP (3.75 µM, ●; 7.5 µM, [drawing 1]; 15 µM, [drawing 2]; 30 µM, x; 60 µM, [drawing 3]; 120 µM, [drawing 4]; 240 µM, [drawing 5]; 480 µM, [drawing 6] ) for various times at 37 °C before being quenched with 0.37 M EDTA.
(§3) HIV-1 RT (120 nM) and 5ʹ-[^32P]-labeled 18/26-mer DNA (30 nM; DNA sequence shown above the 18mer primer without chemical modification) were pre-incubated at 37 °C for 5 min in reaction buffer containing 50 mM Tris-HCl (pH, 7.9), 10 mM MgCl2, 50 mM NaCl, 0.1 mM EDTA, 10% glycerol, 5 mM DTT, and 0.1 µg/mL BSA (all concentrations are final upon mixing). The reactions were initiated by rapidly mixing with varying concentrations of dCTP, FTC-TP, or 3TC-TP on a rapid chemical-quench flow apparatus (KinTek) and quenched with 0.37 M EDTA at various times. The DNA products were analyzed by sequencing gel electrophoresis (17% polyacrylamide, 8 M Urea), and quantitated using a Typhoon Trio (GE Healthcare) and ImageQuant software (Molecular Dynamics). The kinetic data were fit using non-linear regression software KaleidaGraph (Synergy) to a single-exponential equation Product=A1−exp−kobst, where A and kobs represent the reaction amplitude and observed nucleotide incorporation rate constant, respectively. Values for kobs were then plotted against the respective dNTP (or an NRTI triphosphate) concentration and each plot was fit to a hyperbolic equation kobs=kpdNTP∕Kd+dNTP, where kp is the maximal nucleotide incorporation rate constant and Kd is the apparent equilibrium dissociation constant for the binding of dNTP (or an NRTI triphosphate) to the RT and DNA complex. Each set of kinetic parameters (kp, Kd, kp/Kd) are derived from 8 individual experiments where the concentration of nucleotide is variable (i.e. 8 distinct concentrations of dCTP or NRTI). All reported error values are derived from data fitting using non-linear regression software KaleidaGraph (Synergy).

Another data set addresses T2, WT HIV-1 RT (Human immunodeficiency virus type 1 group M subtype B, UniProt P03366, Q857C).
T2 construct: HIV-1 RT p66 and p51 subunits were expressed and purified as described previously; made in house
Put plainly: Pre-steady-state single-turnover kinetics of nucleotide incorporation by WT HIV-1 RT. The class given is biochemical. The following applies: for Kd: 18/26-mer dsDNA, 37 °C, read-out: Kd (apparent equilibrium dissociation constant); for Tighter binding (Kd) compared to natural dCTP: Kd dCTP / Kd analog. The method, then:
as §1, §3

The subject of data set [2] is M184V HIV-1 RT. Put plainly: Pre-steady-state single-turnover kinetics of nucleotide incorporation by M184V HIV-1 RT. The class given is biochemical. The settings on record: M184V vs WT RT. The method, then: as §1, §2, §3
A further data set deals with M184V mutant RT. The settings on record: up; cited from earlier work.
The subject of the next data set is HIV virus. The settings on record: initial cell-based screening; cited from earlier work.
The test system of data set [3] is HIV. The settings on record: clinical trials, monotherapy; cited from earlier work.
In data set [4] the test system is HIV. Also on record: method as in PMID 19225726. The settings on record: reportedly; cited from earlier work.

For the molecule `Nc1ccn([C@H]2CS[C@@H](CO)O2)c(=O)n1` [3TC, 2ʹ,3ʹ-dideoxy-3ʹ-thiacytidine], in the data set on HIV-1 M184V, the “Reduction in potency by M184V in cell-based assays” value is greater than 500 fold and the “Resistance conferred by M184V as compared to WT” value is recorded as greater than 500 fold.
Turning to `Nc1ccn([C@H]2CS[C@@H](COP(=O)(O)OP(=O)(O)OP(=O)(O)O)O2)c(=O)n1` [(+)-3TC-TP], the Kd at M184V HIV-1 RT [1] was 5.4 ± 1.2 µM; at WT HIV-1 RT (WT HIV-1 RT) it was 0.202 ± 0.004 µM.
For `Nc1nc(=O)n([C@H]2CS[C@@H](COP(=O)(O)OP(=O)(O)OP(=O)(O)O)O2)cc1F` [(+)-FTC-TP] the same measures were 1.8 ± 0.3 µM and 0.19 ± 0.02 µM.
For `Nc1ccn([C@@H]2CS[C@H](COP(=O)(O)OP(=O)(O)OP(=O)(O)O)O2)c(=O)n1` [(−)-3TC-TP], the Kd on M184V HIV-1 RT [1] was found to be 53 ± 4 µM. Also, the “Reduction of binding affinity (higher Kd) of M184V compared to WT” value in the data set on M184V HIV-1 RT [2] is given as 212 fold. Also, the Kd at WT HIV-1 RT (WT HIV-1 RT) turned out to be 0.25 ± 0.01 µM. Also, on WT HIV-1 RT (WT RT), the “Higher Kd value (lower binding affinity) over (−)-FTC-TP” value stood at 2.5 fold and the “Tighter binding (Kd) compared to natural dCTP” value was 25 fold.
For `Nc1nc(=O)n([C@@H]2CS[C@H](COP(=O)(O)OP(=O)(O)OP(=O)(O)O)O2)cc1F` [(−)-FTC-TP], on M184V HIV-1 RT [1], the Kd was 28 ± 2 µM. In addition, the “Reduction of binding affinity (higher Kd) of M184V compared to WT” value in the data set with M184V HIV-1 RT [2] is 280 fold. In addition, at WT HIV-1 RT (WT HIV-1 RT), the “Binding affinity increase (tighter binding) over (−)-3TC-TP” value is 2.5 fold, the “Higher incorporation efficiency (kp/Kd) than (−)-3TC-TP” value stood at 3.7 fold and the Kd came to 0.1 ± 0.01 µM. Further, the “Tighter binding (Kd) compared to natural dCTP” value on WT HIV-1 RT (WT RT) is reported as 63 fold.
`Nc1nc(=O)n([C@H]2CS[C@@H](CO)O2)cc1F` [FTC, 2ʹ,3ʹ-dideoxy-5-fluoro-3ʹ-thiacytidine]: in the data set on M184V mutant RT, the “Reduction in potency by M184V in enzyme-based assays” value is recorded as greater than 300 fold. In addition, in the data set with HIV virus, the “Cytotoxicity versus corresponding (+)-stereoisomer” value is “less cytotoxic” and the “Potency against the HIV virus versus corresponding (+)-stereoisomer” value is recorded as “more potent”. In the data set with HIV [3], the “Reduction in viral HIV RNA” value is given as 1.7 log. In the data set on HIV-1 M184V, the “Reduction in potency by M184V in cell-based assays” value is recorded as greater than 500 fold and the “Resistance conferred by M184V as compared to WT” value is listed as greater than 500 fold.
As for `Cc1cn([C@@H]2C[C@@H](O)[C@H](CO)O2)c(=O)[nH]c1=O` [Telbivudine], the “Inhibition of HIV” value with HIV [4] is given as “does not inhibit HIV”.
As for `Nc1ccn([C@H]2C[C@H](O)[C@@H](COP(=O)(O)OP(=O)(O)OP(=O)(O)O)O2)c(=O)n1` [dCTP, deoxycytidine triphosphate], the Kd on M184V HIV-1 RT [1] was determined as 8.9 ± 1 µM; at WT HIV-1 RT (WT HIV-1 RT) it was 6.3 ± 0.2 µM.
